Data set [1] relates to CMViva inducible cell cultures. Kind of data set: Effect of inducer concentration on rAAT production, CMViva inducible cell cultures. The class given is cell-based, Nicotiana benthamiana. The method, then: (§1) The inducer, 17-beta-estradiol, dissolved in DMSO, was added to cultures of XVE and CMViva transgenic cell lines at a specific time after inoculation to start induction. The final concentration of DMSO was not higher than 0.3%.
(§2) For inducible systems, the correct inducer concentration and timing of application are critical to maximize recombinant protein expression. Two inducible expression systems were evaluated for rAAT protein production. The concentration of inducer (COI) required for inducing maximum rAAT production and the close-response of inducible plant cell cultures were determined. Inducer was added to the XVE and CMViva cell suspensions 10 days after inoculation (100 mL cell culture in a 250 mL Erlenmeyer flask, 140 rpm and 25° C. under ambient light) to a final concentration of 0, 0.1, 0.5, 1, 2.5, 5, 10, 25, 50 or 100 μM. Samples were harvested 8 days after induction and total and functional extracellular rAAT were determined by ELISA (FIG. 8). In the absence of inducer, rAAT was not detected in XVE or CMViva cultures. There was a dose-dependent response in rAAT expression in XVE and CMViva cell cultures with added inducer, and both inducible systems allowed regulation of rAAT expression at inducer concentrations between 0.1 and 10 μM. Above approximately 10 μM estradiol, rAAT production leveled off in both XVE and CMViva systems. The CMViva system first responded at 0.1 μM while XVE required 2.5 μM. Higher extracellular rAAT productivity was produced in CMViva at a relatively low inducer concentration (0.5 μM) compared with that in XVE system (5 μM) and CMViva produced more functional rAAT at all inducer concentrations.

Data set [2] concerns XVE inducible cell cultures. Kind of data set: Effect of inducer concentration on rAAT production, XVE inducible cell cultures. The data set is classed as cell-based, Nicotiana benthamiana. How it is done: as §1
as §2, with “The CMViva system first responded at 0.1 μM while XVE required 2.5 μM. Higher extracellular rAAT productivity was produced in CMViva at a relatively low inducer concentration (0.5 μM) compared with that in XVE system (5 μM) and CMViva produced more functional rAAT at all inducer concentrations.” left out

Data set [3] deals with N. benthamiana cultures. Nature of the data set: Effects of estradiol on N. benthamiana cultures (toxicity, growth). The class given is cell-based, Nicotiana benthamiana. Conditions: at up to 100 μM. The method, then:
as §2, with “Higher extracellular rAAT productivity was produced in CMViva at a relatively low inducer concentration (0.5 μM) compared with that in XVE system (5 μM) and CMViva produced more functional rAAT at all inducer concentrations.” left out

The test system of data set [4] is XVE system. Conditions: cited from earlier work.
In data set [5] the test system is viral amplicon plant cell cultures. Conditions: cited from earlier work.
Setting [6] is: inducer added 10 days after inoculation, sampled 8 days after induction.

For the compound `C[C@]12CC[C@@H]3c4ccc(O)cc4CC[C@H]3[C@@H]1CC[C@@H]2O` [estradiol, 17-β-estradiol], the “inducer concentration giving higher extracellular rAAT productivity” value stood at 0.5 µM in data set [1] (flask cultures) and 5 µM in data set [2] (flask cultures). Also, the “estradiol concentration at which the system first responded (detectable rAAT)” value in data set [1] (setting [6]) turned out to be 0.1 µM; in data set [2] (setting [6]), 2.5 µM. Also, the “lowest estradiol concentration with detectable rAAT expression” value in data set [1] (lowest concentration tested) is 100 nM. Moreover, the “detrimental, toxic or growth-inhibiting effects on cultures” value in data set [3] is “no obvious detrimental, toxic, or growth-inhibiting effects”. Besides, the “estradiol concentration giving detectable GFP transcripts” value in data set [4] (plants, XVE system) was 8 nM. Also, the “estradiol concentration at saturation of GFP transcripts” value in data set [4] (whole plants) is “around 5 μM”. Further, the “estradiol concentration giving GFP fluorescence” value in data set [5] (viral amplicon plant cell cultures) was 10 nM. The “estradiol concentration at saturation of GFP fluorescence” value in data set [5] (viral amplicon system in plant cell culture) was 0.1 to 1 µM.

The values above are taken from patent US10421973B2, “Chemically inducible cucumber mosaic virus protein expression system” (THE REGENTS OF THE UNIVERSITY OF CALIFORNIA, priority 2006, dated 2019).
